In patent publication US20100152128A1, “Antiviral Agents” (priority 2007, published 2010):
Like-named read-outs stand apart in the source and are kept apart here.

System: subgenomic HCV Replicon in HuH-7 cells
Test: Assay for inhibition of HCV RNA replication (replicon, in situ ribonuclease protection SPA)
Type: cell-based, Hepatitis C Virus
[1] = Hepatitis C virus, HuH-7 hepatoma cells containing a subgenomic HCV Replicon, inhibition of HCV RNA replication, read-out: EC50
[2] = HuH-7 hepatoma cells containing a subgenomic HCV Replicon, inhibition of HCV RNA replication, read-out: EC50

Compound | EC50 [1] | also measured
C[C@H](NP(=O)(O)OC[C@H]1O[C@@H](n2ccc(N)nc2=O)[C@](C)(O)[C@@H]1O)C(=O)OC1CCCCCC1 [Example 4, 5′-O-[[[(1S)-2-(cycloheptyloxy)-1-methyl-2-oxoethyl]amino]hydroxyphosphinyl]-2′-C-methylcytidine] | 9.9 µM | –
CCCC(CCC)COC(=O)C(C)NP(=O)(O)OC[C@H]1O[C@@H](n2ccc3c(N)ncnc32)[C@](C)(O)[C@@H]1O (stereo partly shown) [Example 10, 5′-O-[hydroxyl[[1-methyl-2-oxo-2-[(propylpentyl)oxy]ethyl]amino]phosphinyl]-2′-C-methyl-7-deaza adenosine] | – | EC50 [2]: 1.1 µM
CCCC(CCC)C(=O)OCCNP(=O)(O)OC[C@H]1O[C@@H](n2ccc3c(N)ncnc32)[C@](C)(O)[C@@H]1O [Example 11, 5′-O-[hydroxyl[[2-[(1-oxo-2-propylpentyl)oxy]ethyl]amino]phosphinyl]-2′-C-methyl-7-deaza adenosine] | 0.7 µM | –
CCCC(CCC)c1noc([C@H](C)NP(=O)(O)OC[C@H]2O[C@@H](n3ccc(N)nc3=O)[C@](C)(O)[C@@H]2O)n1 [Example 8, [(3aR, 4aR, 6R, 6aR)-6-(4-amino-2-oxopyrimidin-1(2H)-yl)-3,4-dihydroxy-4-methyltetrahydrofuran-2-yl]methyl hydrogen{(1S)-1-[3-(1-propylbutyl)-1,2,4-oxadiazol-5-yl]ethyl}amidophosphate] | – | EC50 [2]: 5.4 µM
CCCC(CCC)COC(=O)[C@H](C)NP(=O)(O)OC[C@H]1O[C@@H](n2ccc(N)nc2=O)[C@](C)(O)[C@@H]1O [Example 2, 5′-O-[hydroxy[[(1S)-1-methyl-2-oxo-2-[(2-propylpentyl)oxy]ethyl]amino]phosphinyl]-2′-C-methylcytidine] | 6 µM | –
CCCC(CCC)c1nnc([C@H](C)NP(=O)(O)OC[C@H]2O[C@@H](n3ccc(N)nc3=O)[C@](C)(O)[C@@H]2O)o1 [Example 9, 5-O-[hydroxy[[1-[5-(1-propylbutyl)-1,3,4-oxadiazol-2-yl]ethyl]amino]phosphinyl]-2′-C-methylcytidine] | – | EC50 (Hepatitis C virus, Huh-7): 10.6 µM
C[C@H](NP(=O)(O)OC[C@H]1O[C@@H](n2ccc(N)nc2=O)[C@](C)(O)[C@@H]1O)C(=O)OC1CCCCCCC1 [Example 5, 5′-O-[[[(1S)-2-(cyclooctyloxy)-1-methyl-2-oxoethyl]amino]hydroxyphosphinyl]-2′-C-methylcytidine] | 9.9 µM | –
